From patent publication US5661136A, “2-halo-2'-fluoro ARA adenosines as antinoplastic agents” (priority 1994, dated 1997)

What was measured:
DNA polymerase α = target: T1, DNA polymerase α (Homo sapiens, UniProt P09884); details: incorporated 5'-monophosphate; cited from earlier work
T1 sequence (P09884 1-1462): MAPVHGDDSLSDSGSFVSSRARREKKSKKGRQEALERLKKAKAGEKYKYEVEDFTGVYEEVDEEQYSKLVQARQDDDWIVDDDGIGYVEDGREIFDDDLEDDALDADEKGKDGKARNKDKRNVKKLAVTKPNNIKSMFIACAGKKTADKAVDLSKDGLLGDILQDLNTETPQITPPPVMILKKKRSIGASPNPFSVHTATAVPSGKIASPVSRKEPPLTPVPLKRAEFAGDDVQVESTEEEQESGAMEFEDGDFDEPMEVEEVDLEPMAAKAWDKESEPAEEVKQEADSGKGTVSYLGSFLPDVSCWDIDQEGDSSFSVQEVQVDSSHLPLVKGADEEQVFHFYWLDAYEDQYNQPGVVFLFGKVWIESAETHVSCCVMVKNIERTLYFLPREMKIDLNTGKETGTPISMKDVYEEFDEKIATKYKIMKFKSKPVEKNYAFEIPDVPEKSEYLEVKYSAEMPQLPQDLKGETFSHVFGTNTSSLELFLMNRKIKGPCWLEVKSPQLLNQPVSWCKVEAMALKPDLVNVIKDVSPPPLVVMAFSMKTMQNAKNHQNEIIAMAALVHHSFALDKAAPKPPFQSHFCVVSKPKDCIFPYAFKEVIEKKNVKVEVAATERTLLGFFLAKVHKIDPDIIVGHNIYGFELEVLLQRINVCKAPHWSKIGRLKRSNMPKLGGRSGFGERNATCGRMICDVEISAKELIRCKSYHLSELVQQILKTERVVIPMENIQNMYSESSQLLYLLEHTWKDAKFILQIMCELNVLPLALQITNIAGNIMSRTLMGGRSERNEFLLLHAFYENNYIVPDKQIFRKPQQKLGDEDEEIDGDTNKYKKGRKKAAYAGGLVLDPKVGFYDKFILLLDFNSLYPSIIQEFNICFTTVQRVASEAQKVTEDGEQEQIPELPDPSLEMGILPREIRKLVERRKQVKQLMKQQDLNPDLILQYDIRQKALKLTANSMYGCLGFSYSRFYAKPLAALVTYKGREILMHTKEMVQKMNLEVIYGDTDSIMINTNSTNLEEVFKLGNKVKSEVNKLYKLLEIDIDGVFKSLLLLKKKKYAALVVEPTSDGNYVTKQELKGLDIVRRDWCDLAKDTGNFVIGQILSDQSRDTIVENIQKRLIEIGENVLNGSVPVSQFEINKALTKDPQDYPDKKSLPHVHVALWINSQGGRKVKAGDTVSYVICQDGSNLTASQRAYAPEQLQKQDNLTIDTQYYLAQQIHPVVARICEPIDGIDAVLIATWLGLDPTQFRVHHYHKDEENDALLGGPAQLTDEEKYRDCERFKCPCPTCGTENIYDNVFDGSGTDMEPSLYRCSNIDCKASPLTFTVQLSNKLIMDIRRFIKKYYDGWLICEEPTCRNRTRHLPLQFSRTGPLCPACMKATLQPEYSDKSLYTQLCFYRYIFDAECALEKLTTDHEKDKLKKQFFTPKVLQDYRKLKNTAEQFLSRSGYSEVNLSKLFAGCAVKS

HIV (strain IIIB) = assay: Activity against HIV in cell culture; assay type: cell-based; details: CEM or MT cell lines in culture

SMILES: Nc1nc(Cl)nc2c1ncn2[C@H]1C[C@H](O)[C@@H](COP(=O)(O)O)O1 [2-chloro-2'-deoxyadenosine 5'monophosphate]
- inhibition of further elongation of the DNA chain after incorporation by DNA polymerase α (DNA polymerase α): did not inhibit the further elongation of the DNA chain to the degree that was seen with the incorporation of either

SMILES: Nc1nc(F)nc2c1ncn2[C@@H]1O[C@H](CO)C[C@@H]1F [compound 4b, 2-Fluoro-9-(2-3-dideoxy-2-fluoro-β-D-arabinofuranosyl)-9H-purin-6-amine]
- activity against HIV (strain IIIB) (HIV (strain IIIB)): slight activity
